Laboratory results from the NIST ThermoML archive (doi:10.1016/j.jct.2014.07.003).

Tests used:
[1] = mn = molality of the nth substance listed, in mol/kg; details: 99 kPa, Liquid, Alternating current cell with electrodes
[2] = 99 kPa, Liquid, Alternating current cell with electrodes

CCCC[N+](CCCC)(CCCC)CCCC.[Br-] [tetrabutylammonium bromide] + O
[1], m1 = 0.01
Details | electrical conductivity [S/m]
288.15 K | 0.106
293.15 K | 0.0894
298.15 K | 0.0829
303.15 K | 0.0841
308.15 K | 0.083
313.15 K | 0.0843
318.15 K | 0.0856

CCCCC[N+](CCCCC)(CCCCC)CCCCC.[Br-] [tetrapentylammonium bromide] + O
[1], m1 = 0.01
Details | electrical conductivity [S/m]
288.15 K | 0.0961
293.15 K | 0.0898
298.15 K | 0.0879
303.15 K | 0.09
308.15 K | 0.0897
313.15 K | 0.0881
318.15 K | 0.0903

O [water]
[2]
Details | electrical conductivity [S/m]
288.15 K | 0.0005
293.15 K | 0.000281
298.15 K | 0.000585
303.15 K | 0.000687
308.15 K | 0.00057
313.15 K | 0.000608
318.15 K | 0.000835

O [water] + CCCCCCCCCCCC[N+](C)(C)C.[Br-]
[1], m2 = 0
Details | electrical conductivity [S/m]
288.15 K | 0.0005
293.15 K | 0.000281
298.15 K | 0.000585
303.15 K | 0.000687
308.15 K | 0.00057
313.15 K | 0.000608
318.15 K | 0.000835
